Measurements taken from ChEMBL document CHEMBL1201862, “PubChem BioAssay data set” (2004).
Calls of active or inactive are those of the source.

Experiments:
[1] = tested on: Streptococcus sp. 'group A'; assay: growth inhibition of control SK(-) GAS strain, dose response, counter-screen for streptokinase expression inhibitor project, luminescence, kanamycin, BacTiterGlo, confirmation (AID 1900); format: functional, organism-based
Streptokinase A = target: T1, Streptokinase A (Streptococcus pyogenes serotype M1, UniProt P10520); assay: S. pyogenes streptokinase expression inhibitors, potency, dose response, plasminogen activation absorbance, OD405 (AID 1914); format: functional, Streptococcus pyogenes M1 GAS;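 also: secreted streptokinase activity via plasminogen activation per viability signal from cell pellet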
T1 sequence (P10520 whole entry): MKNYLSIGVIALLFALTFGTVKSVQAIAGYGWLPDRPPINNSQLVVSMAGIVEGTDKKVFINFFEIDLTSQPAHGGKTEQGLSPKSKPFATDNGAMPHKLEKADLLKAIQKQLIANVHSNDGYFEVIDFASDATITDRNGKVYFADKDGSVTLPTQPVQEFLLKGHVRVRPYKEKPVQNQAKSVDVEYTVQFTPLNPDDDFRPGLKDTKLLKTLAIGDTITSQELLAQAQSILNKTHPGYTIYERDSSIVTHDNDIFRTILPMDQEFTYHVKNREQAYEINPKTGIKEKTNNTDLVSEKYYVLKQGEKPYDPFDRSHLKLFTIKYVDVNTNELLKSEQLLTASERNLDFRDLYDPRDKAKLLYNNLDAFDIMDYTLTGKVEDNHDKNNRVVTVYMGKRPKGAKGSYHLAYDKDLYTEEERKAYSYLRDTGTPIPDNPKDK

[2] = target: T2, Sentrin-specific protease 7 (Homo sapiens, UniProt Q9BQF6); format: functional;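 also: Luminescence-based dose-response confirmation of ultra-high-throughput screening hits, measuring inhibition of SENP7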
T2 sequence (Q9BQF6 whole entry): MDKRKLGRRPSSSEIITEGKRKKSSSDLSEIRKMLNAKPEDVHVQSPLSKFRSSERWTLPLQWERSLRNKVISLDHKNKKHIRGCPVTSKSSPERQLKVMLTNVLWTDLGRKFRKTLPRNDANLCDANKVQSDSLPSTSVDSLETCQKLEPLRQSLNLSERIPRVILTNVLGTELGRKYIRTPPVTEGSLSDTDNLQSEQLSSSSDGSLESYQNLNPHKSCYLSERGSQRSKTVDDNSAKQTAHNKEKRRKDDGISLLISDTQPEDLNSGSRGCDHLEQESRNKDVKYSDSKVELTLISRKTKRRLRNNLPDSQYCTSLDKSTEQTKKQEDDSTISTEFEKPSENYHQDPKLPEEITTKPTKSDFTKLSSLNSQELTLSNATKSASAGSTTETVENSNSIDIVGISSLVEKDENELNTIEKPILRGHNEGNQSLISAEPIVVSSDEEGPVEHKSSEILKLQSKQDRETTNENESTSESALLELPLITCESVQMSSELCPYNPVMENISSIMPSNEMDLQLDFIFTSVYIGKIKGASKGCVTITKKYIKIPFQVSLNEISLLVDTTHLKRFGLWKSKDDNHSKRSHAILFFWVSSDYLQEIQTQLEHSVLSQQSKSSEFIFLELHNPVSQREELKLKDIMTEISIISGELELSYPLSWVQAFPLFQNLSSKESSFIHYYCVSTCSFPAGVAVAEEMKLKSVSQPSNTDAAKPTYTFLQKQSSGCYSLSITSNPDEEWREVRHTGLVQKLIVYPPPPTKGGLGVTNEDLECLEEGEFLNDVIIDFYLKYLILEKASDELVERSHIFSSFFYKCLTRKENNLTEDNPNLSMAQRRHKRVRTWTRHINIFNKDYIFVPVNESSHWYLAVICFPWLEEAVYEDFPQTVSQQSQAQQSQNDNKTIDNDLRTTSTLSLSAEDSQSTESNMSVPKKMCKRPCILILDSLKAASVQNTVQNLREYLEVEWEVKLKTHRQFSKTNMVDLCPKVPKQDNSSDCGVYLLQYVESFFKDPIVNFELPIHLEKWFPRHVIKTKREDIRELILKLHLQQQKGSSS

[3] = target: T3, Apoptotic protease-activating factor 1 (Homo sapiens, UniProt O14727); format: functional
T3 sequence (O14727 whole entry): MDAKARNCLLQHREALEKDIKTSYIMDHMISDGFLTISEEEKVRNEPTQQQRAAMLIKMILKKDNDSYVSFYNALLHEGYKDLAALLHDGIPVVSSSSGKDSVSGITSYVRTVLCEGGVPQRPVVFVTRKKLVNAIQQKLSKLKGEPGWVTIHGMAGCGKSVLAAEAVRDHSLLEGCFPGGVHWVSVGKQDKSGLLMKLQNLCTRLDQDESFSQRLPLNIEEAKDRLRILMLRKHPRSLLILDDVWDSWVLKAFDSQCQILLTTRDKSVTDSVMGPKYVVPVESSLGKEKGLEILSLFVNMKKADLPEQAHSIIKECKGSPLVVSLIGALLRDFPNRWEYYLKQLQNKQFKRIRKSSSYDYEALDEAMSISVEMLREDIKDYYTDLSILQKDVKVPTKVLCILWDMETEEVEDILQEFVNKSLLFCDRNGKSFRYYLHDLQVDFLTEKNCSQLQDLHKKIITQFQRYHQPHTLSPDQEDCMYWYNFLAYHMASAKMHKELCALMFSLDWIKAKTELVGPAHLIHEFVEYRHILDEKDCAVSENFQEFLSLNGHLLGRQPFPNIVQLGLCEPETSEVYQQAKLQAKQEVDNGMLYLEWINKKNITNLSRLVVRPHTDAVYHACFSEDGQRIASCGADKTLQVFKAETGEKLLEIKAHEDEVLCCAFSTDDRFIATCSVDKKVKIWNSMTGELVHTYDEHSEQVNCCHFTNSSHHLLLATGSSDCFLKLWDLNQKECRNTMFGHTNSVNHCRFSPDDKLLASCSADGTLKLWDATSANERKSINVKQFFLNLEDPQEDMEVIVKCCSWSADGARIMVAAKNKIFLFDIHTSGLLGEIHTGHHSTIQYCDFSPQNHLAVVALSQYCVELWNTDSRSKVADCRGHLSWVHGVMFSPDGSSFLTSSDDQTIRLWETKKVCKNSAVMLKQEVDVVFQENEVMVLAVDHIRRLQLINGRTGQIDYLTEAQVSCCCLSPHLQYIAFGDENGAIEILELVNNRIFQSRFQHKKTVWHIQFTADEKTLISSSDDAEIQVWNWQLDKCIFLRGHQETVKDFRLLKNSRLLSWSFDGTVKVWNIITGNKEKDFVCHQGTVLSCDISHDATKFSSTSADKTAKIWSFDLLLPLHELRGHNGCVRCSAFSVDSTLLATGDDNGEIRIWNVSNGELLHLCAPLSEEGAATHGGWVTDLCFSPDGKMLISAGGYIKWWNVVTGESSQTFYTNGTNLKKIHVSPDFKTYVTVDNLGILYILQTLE

[4] = target: Tyrosyl-DNA phosphodiesterase 2 (Homo sapiens, UniProt O95551); assay: human TDP2 enzyme inhibitors, dose response, biochemical, epi absorbance, IC50 (AID 743297)
Chain of Tyrosyl-DNA phosphodiesterase 2 (O95551 whole entry): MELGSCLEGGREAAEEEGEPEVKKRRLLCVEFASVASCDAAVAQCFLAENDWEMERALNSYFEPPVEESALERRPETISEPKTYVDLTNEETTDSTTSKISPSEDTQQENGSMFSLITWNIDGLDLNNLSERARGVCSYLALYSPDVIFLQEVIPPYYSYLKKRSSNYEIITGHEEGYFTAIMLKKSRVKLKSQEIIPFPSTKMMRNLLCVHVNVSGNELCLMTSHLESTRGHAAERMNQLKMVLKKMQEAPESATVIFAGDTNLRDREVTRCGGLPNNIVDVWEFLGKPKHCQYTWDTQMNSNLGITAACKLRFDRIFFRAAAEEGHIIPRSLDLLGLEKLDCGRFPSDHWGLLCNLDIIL

Clc1ccc(C2=CSC3=Nc4cccc5cccc(c45)N23)cc1
EC50 [1]: 4.17 µM (active) | EC50 (Streptokinase A): > 150 µM (not active) | IC50 [2]: 5.65 µM (active) | IC50 [3]: 17.9 µM (active) | IC50 [4]: > 128 µM (inactive)
